Experimental data reported in patent US20190328763A1, “A LIPID NANOPARTICLE FOR CARRYING ANTISENSE OLIGONUCLEOTIDES INHIBITING BCL-2 AND METHOD FOR PREPARING THE SAME” (NANJING LUYE PHARMACEUTICAL CO., LTD., priority 2016, published 2019).
Where two headings read alike, the source gives them in different places. d = 2'-deoxy (DNA); m = 2'-O-methyl

Legend:
Format in all cases: cell-based
bcl-2 messenger RNA [1] = test: Gene level (Bcl-2) G3139 regulation experiment, Real-Time-PCR, A549 lung cancer cells; conditions: for Ratio (bcl-2/β-actin): 1 μM G3139, 4 h incubation then 48 h culture, control group 100%
Method: (§1) (1) We will place cancer cells, such as A549 cells, KB cells, and LNCaP prostate cancer cells in 6-well plates and make the cells grow in an RPMI1640 culture solution containing 10% fetal calf serum to allow the cells to grow overnight to achieve a plating rate of 80%.
(§2) (3) After incubation in an environment of 37 degrees and 5% CO2 for 4 h, the cells will be transferred to a fresh culture solution and the culture will last for 48 h. Cells were collected, lysed, and extracted RNA according to standard methods.
(§3) (4) We will analyze the levels of bcl-2 messenger RNA in each group with the Real-Time-PCR technology, and we can finally quantify the expression of bcl-2 after treatment in each group according to the standard methods of reagent suppliers.

bcl-2 messenger RNA [2] = test: Gene level (Bcl-2) G3139 regulation experiment, Real-Time-PCR, KB cancer cells; conditions: for Ratio (bcl-2/β-actin): 1 μM G3139, 4 h incubation then 48 h culture, control group 100%
Method: as §1, §2, §3
By designing different sample groups, we regulate the levels of bcl-2 in KB cells.

bcl-2 messenger RNA [3] = test: Gene level (Bcl-2) G3139 regulation experiment, Real-Time-PCR, LNCaP prostate cancer cells; conditions: for Ratio (bcl-2/β-actin): 1 μM G3139, 4 h incubation then 48 h culture, control group 100%
Method: as §1, §2, §3

A549 cells = test: A549 lung cancer cytotoxicity test (MTS); conditions: Homo sapiens, paclitaxel 1 nmol/L-100 μmol/L, antisense oligonucleotide fixed 10 μmol/L
Method: (1) We placed A549 cells in 96-well plates, and made the cells grow in an RPMI1640 culture solution containing 10% fetal calf serum to allow the cells to grow overnight to achieve a plating rate of 60-70%.
(2) A toxicity test of multiple paclitaxel (PTX) concentration gradients (1 nmol/L-100 μmol/L) and antisense oligonucleotide concentrations (10 μmol/L) in each group was conducted with each concentration group on the second day, and each concentration group was incubated in a 37 degree and 5% CO2 environment.
(3) 20 ul of MTS reagent (a novel tetrazole compound) was added at different time points 24 h, 48 h, and 72 h, and the detection was performed at a wavelength of 490 nm and the results were as shown in the following table: […]

Compound	Ratio (bcl-2/β-actin) (bcl-2 messenger RNA [1]) [%]	Ratio (bcl-2/β-actin) (bcl-2 messenger RNA [2]) [%]	Ratio (bcl-2/β-actin) (bcl-2 messenger RNA [3]) [%]	gene-level down-regulation of bcl-2 (bcl-2 messenger RNA [1]; 1 μM G3139) [%]	gene-level down-regulation of bcl-2 (bcl-2 messenger RNA [2]; 1 μM G3139) [%]	gene-level down-regulation of bcl-2 (bcl-2 messenger RNA [3]; 1 μM G3139) [%]	IC50 (A549 cells; 24 h, read-out: IC50 after 24 h) [nM]	IC50 (A549 cells; 48 h, read-out: IC50 after 48 h) [nM]	IC50 (A549 cells; 72 h, read-out: IC50 after 72 h) [nM]
5′-TCT CCC AGC GTG CGC CAT-3′ (antisense TCTCCCAGCGTGCGCCAT; DNA, all phosphorothioate, methylation of C not given here) [free G3139]	88.75	95.31	93.15	–	–	–	–	–	–
5′-UCU CCC AGC GTG CGC CAU-3′ (antisense UCUCCCAGCGTGCGCCAU; sugars from the 5' end m3 d12 m3, all phosphorothioate, methylation of C not given here) [free 2′-O-Me modified G3139]	93.29	89.04	94.89	6.71	10.96	5.11	–	–	–
CC(=O)O[C@H]1C(=O)[C@@]2(C)[C@H]([C@H](OC(=O)c3ccccc3)[C@]3(O)C[C@H](OC(=O)[C@H](O)[C@@H](NC(=O)c4ccccc4)c4ccccc4)C(C)=C1C3(C)C)[C@]1(OC(C)=O)CO[C@@H]1C[C@@H]2O [Paclitaxel (PTX) alone, Paclitaxel]	–	–	–	–	–	–	75.6	28.5	17.9
